Assay results reported in the supplement of paper PMC10307832.

What was measured:
Assay in all cases: relative viability (nuclei count vs DMSO), 5 days (fraction); higher = more cells survive
Venetoclax + Bortezomib = compound: CC1(C)CCC(CN2CCN(c3ccc(C(=O)NS(=O)(=O)c4ccc(NCC5CCOCC5)c([N+](=O)[O-])c4)c(Oc4cnc5[nH]ccc5c4)c3)CC2)=C(c2ccc(Cl)cc2)C1 [Venetoclax] + CC(C)C[C@H](NC(=O)[C@H](Cc1ccccc1)NC(=O)c1cnccn1)B(O)O [Bortezomib] (partner 0.002 µM)
Method in brief: (§1)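 For relative viability, nuclei counts in treated wells were divided by those in vehicle wells. Lung cancer cell lines had been pin-tool dosed in 1536-well plates the day after seeding and cultured for 5 days, then fixed and stained in one step (final 0.05% Triton X-100, 1% formaldehyde, 1 ug/ml Hoechst) and imaged at 4×. Doses were one drug alone or a fixed anchor-drug dose plus five library-drug doses (not always all listed) in √10 steps, and values are duplicate-plate medians.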

Venetoclax + Lapatinib = compound: CC1(C)CCC(CN2CCN(c3ccc(C(=O)NS(=O)(=O)c4ccc(NCC5CCOCC5)c([N+](=O)[O-])c4)c(Oc4cnc5[nH]ccc5c4)c3)CC2)=C(c2ccc(Cl)cc2)C1 [Venetoclax] + CS(=O)(=O)CCNCc1ccc(-c2ccc3ncnc(Nc4ccc(OCc5cccc(F)c5)c(Cl)c4)c3c2)o1 [Lapatinib] (partner 2 µM)
Method in brief: as §1

Venetoclax + Tozasertib = compound: CC1(C)CCC(CN2CCN(c3ccc(C(=O)NS(=O)(=O)c4ccc(NCC5CCOCC5)c([N+](=O)[O-])c4)c(Oc4cnc5[nH]ccc5c4)c3)CC2)=C(c2ccc(Cl)cc2)C1 [Venetoclax] + Cc1cc(Nc2cc(N3CCN(C)CC3)nc(Sc3ccc(NC(=O)C4CC4)cc3)n2)n[nH]1 [Tozasertib] (partner 0.1 µM)
Method in brief: as §1

Venetoclax + Olaparib = compound: CC1(C)CCC(CN2CCN(c3ccc(C(=O)NS(=O)(=O)c4ccc(NCC5CCOCC5)c([N+](=O)[O-])c4)c(Oc4cnc5[nH]ccc5c4)c3)CC2)=C(c2ccc(Cl)cc2)C1 [Venetoclax] + O=C(c1cc(Cc2n[nH]c(=O)c3ccccc23)ccc1F)N1CCN(C(=O)C2CC2)CC1 [Olaparib] (partner 8 µM)
Method in brief: as §1

Row | Cell Line | relative viability (Venetoclax + Bortezomib; first compound 0.01 µM) | relative viability (Venetoclax + Bortezomib; first compound 0.03162 µM) | relative viability (Venetoclax + Bortezomib; first compound 0.1 µM) | relative viability (Venetoclax + Bortezomib; first compound 0.3162 µM) | relative viability (Venetoclax + Bortezomib; first compound 1 µM) | relative viability (Venetoclax + Lapatinib; first compound 0.01 µM) | relative viability (Venetoclax + Lapatinib; first compound 0.03162 µM) | relative viability (Venetoclax + Lapatinib; first compound 0.1 µM) | relative viability (Venetoclax + Lapatinib; first compound 0.3162 µM) | relative viability (Venetoclax + Lapatinib; first compound 1 µM) | relative viability (Venetoclax + Tozasertib; first compound 0.01 µM) | relative viability (Venetoclax + Tozasertib; first compound 0.03162 µM) | relative viability (Venetoclax + Tozasertib; first compound 0.1 µM) | relative viability (Venetoclax + Tozasertib; first compound 0.3162 µM) | relative viability (Venetoclax + Tozasertib; first compound 1 µM) | relative viability (Venetoclax + Olaparib; first compound 0.01 µM) | relative viability (Venetoclax + Olaparib; first compound 0.03162 µM) | relative viability (Venetoclax + Olaparib; first compound 0.1 µM) | relative viability (Venetoclax + Olaparib; first compound 0.3162 µM) | relative viability (Venetoclax + Olaparib; first compound 1 µM)
1 | EMC-BAC-2 | 1.02 | 1.05 | 0.958 | 1.02 | 1.04 | 0.88 | 0.878 | 0.731 | 0.847 | 0.827 | 0.3 | 0.285 | 0.28 | 0.273 | 0.259 | 0.503 | 0.554 | 0.5 | 0.497 | 0.471
2 | ABC-1 | 0.291 | 0.314 | 0.446 | 0.31 | 0.309 | 1.24 | 1.17 | 1.1 | 1.14 | 1.13 | 0.16 | 0.17 | 0.178 | 0.156 | 0.219 | 0.711 | 0.721 | 0.87 | 0.641 | 0.686
3 | NCI-H1437 | 0.451 | 0.572 | 0.475 | 0.42 | 0.492 | 0.766 | 0.873 | 0.758 | 0.742 | 0.703 | 0.392 | 0.426 | 0.408 | 0.376 | 0.336 | 0.607 | 0.616 | 0.624 | 0.615 | 0.601
4 | NCI-H3122 | 1.06 | 0.968 | 1.01 | 0.985 | 1.02 | 1.15 | 1.04 | 1.05 | 0.986 | 1.05 | 0.422 | 0.565 | 0.357 | 0.392 | 0.405 | 0.644 | 0.671 | 0.637 | 0.667 | 0.603
5 | NCI-H2023 | 0.964 | 1 | 1.03 | 1.01 | 0.853 | 0.935 | 0.888 | 0.748 | 0.898 | 0.627 | 0.328 | 0.407 | 0.392 | 0.393 | 0.218 | 0.425 | 0.498 | 0.453 | 0.561 | 0.455
6 | NCI-H460 | 1.06 | 1.06 | 1.06 | 1.03 | 0.904 | 0.971 | 0.974 | 0.994 | 0.935 | 0.866 | 0.473 | 0.387 | 0.126 | 0.266 | 0.25 | 0.39 | 0.414 | 0.359 | 0.44 | 0.398
7 | PC-3 [JPC-3] | 0.764 | 0.822 | 0.794 | 0.771 | 0.829 | 0.474 | 0.474 | 0.434 | 0.465 | 0.475 | 0.841 | 0.909 | 0.816 | 0.88 | 0.853 | 1.15 | 1.19 | 1.21 | 1.15 | 1.04
8 | HCC-15 | 1.05 | 1.04 | 0.964 | 1 | 0.875 | 0.887 | 0.855 | 0.774 | 0.796 | 0.774 | 0.45 | 0.47 | 0.371 | 0.324 | 0.273 | 0.607 | 0.754 | 0.75 | 0.68 | 0.668
9 | NCI-H2228 | 1.04 | 0.99 | 0.972 | 1.21 | 1.19 | 1.15 | 1.29 | 1.21 | 1.09 | 0.954 | 0.251 | 0.313 | 0.288 | 0.246 | 0.25 | 0.519 | 0.832 | 0.519 | 0.776 | 0.692
10 | NCI-H1650 | 0.217 | 0.218 |  | 0.205 | 0.184 | 0.764 | 0.873 |  | 1.01 | 0.81 | 0.456 | 0.409 | 0.427 | 0.406 | 0.299 | 0.763 | 0.733 | 0.994 | 0.592 | 0.745
11 | NCI-H1975 | 0.424 | 0.393 | 0.35 | 0.344 | 0.299 | 1.02 | 0.875 | 0.903 | 0.948 | 0.863 | 0.763 | 0.711 | 0.726 | 0.658 | 0.374 | 0.754 | 0.821 | 0.74 | 0.811 | 0.674
12 | NCI-H727 | 0.938 | 1.19 | 0.833 | 0.862 | 0.888 | 0.904 | 1 | 0.857 | 0.791 | 0.753 | 0.765 | 0.61 | 0.496 | 0.58 | 0.58 | 0.758 | 0.801 | 0.803 | 0.836 | 0.641
13 | COR-L23 | 0.91 | 1.06 | 0.982 | 0.98 | 0.896 | 0.921 | 0.957 | 0.983 | 0.922 | 0.938 | 0.206 | 0.217 | 0.231 | 0.16 | 0.182 | 0.331 | 0.473 | 0.313 | 0.382 | 0.314
14 | COR-L 105 | 0.867 | 0.902 | 0.751 | 0.777 | 0.691 | 0.418 | 0.384 | 0.326 | 0.355 | 0.367 | 0.274 | 0.397 | 0.321 | 0.32 | 0.335 | 0.518 | 0.718 | 0.709 | 0.691 | 0.674
15 | 201T | 1.11 | 1.03 | 1.11 | 1.09 | 1.06 | 1.07 | 0.943 | 0.959 | 1.02 | 1.08 | 0.826 | 0.957 | 0.945 | 0.91 | 0.941 | 0.822 | 0.868 | 0.811 | 0.846 | 0.829
16 | HCC-78 | 0.523 | 0.583 | 0.482 | 0.525 | 0.477 | 0.859 | 0.736 | 0.604 | 0.935 | 0.662 | 0.349 | 0.454 | 1.29 | 0.404 | 0.497 | 0.718 | 0.78 | 0.879 | 0.871 | 0.686
17 | NCI-H650 | 0.671 | 0.792 |  | 0.873 | 0.817 | 0.726 | 0.86 |  | 0.963 | 0.882 | 0.682 | 0.719 | 0.685 | 0.697 | 0.674 | 0.356 | 0.425 | 0.375 | 0.383 | 0.365
18 | HARA | 1.14 | 1.13 | 0.937 | 1.12 | 1.1 | 0.876 | 0.68 | 0.647 | 0.822 | 0.758 | 0.0626 | 0.109 | 0.0841 | 0.116 | 0.106 | 0.803 | 0.993 |  | 0.814 | 0.822
19 | NCI-H661 | 0.722 | 0.762 | 0.717 | 0.799 | 0.646 | 0.519 | 0.615 | 0.491 | 0.5 | 0.487 | 0.353 | 0.335 | 0.313 | 0.345 | 0.333 | 0.745 | 0.789 | 0.715 | 0.74 | 0.708
20 | NCI-H2087 | 0.808 | 0.766 | 1 | 0.83 | 0.753 | 0.958 | 1.16 | 1.07 | 1.09 | 1.05 | 0.278 | 0.261 | 0.245 | 0.241 | 0.229 | 0.611 | 0.736 | 0.45 | 0.567 | 0.692
21 | NCI-H2405 | 0.956 | 1.09 | 0.94 | 0.982 | 0.907 | 1.07 | 1.08 |  | 1.01 | 1 | 0.741 | 0.783 | 0.632 | 0.736 | 0.645 | 0.833 | 0.881 | 0.915 | 0.929 | 0.78
22 | NCI-H647 | 1.08 | 1.2 |  | 0.944 | 1.02 | 1.14 | 1.15 |  | 1.21 | 0.978 | 0.228 | 0.225 | 0.361 | 0.22 | 0.262 | 0.521 | 0.698 | 0.424 | 0.564 | 0.535
23 | NCI-H596 | 1.01 | 0.857 | 0.979 | 1.14 | 1.14 | 1.09 | 1.24 | 0.971 | 1.15 | 1.11 | 1.05 | 0.74 | 0.966 | 0.862 | 0.847 | 0.764 | 0.709 | 0.711 | 0.696 | 0.759
24 | EKVX | 1.04 | 1.05 | 1.04 | 1.14 | 0.842 | 0.191 | 0.22 | 0.219 | 0.193 | 0.185 | 0.403 | 0.392 | 0.435 | 0.324 | 0.309 | 0.93 | 0.908 | 0.817 | 0.855 | 0.819
25 | H3255 | 0.784 | 0.855 | 0.626 | 0.825 | 0.644 | 0.268 | 0.263 | 0.195 | 0.282 | 0.319 | 0.564 | 0.525 | 0.615 | 0.591 | 0.745 | 0.626 | 0.576 | 0.545 | 0.597 | 0.566
26 | NCI-H1651 | 1.02 | 0.952 | 1.03 | 0.976 | 0.885 | 0.92 | 0.885 | 0.747 | 0.905 | 0.764 | 0.751 | 0.681 | 0.636 | 0.639 | 0.599 | 0.157 | 0.204 | 0.171 | 0.171 | 0.188
27 | NCI-H23 | 0.95 | 0.952 | 1.06 | 1.07 | 0.9 | 1.11 | 1.14 | 0.942 | 1.12 | 0.984 | 0.492 | 0.347 | 0.368 | 0.323 | 0.418 | 0.311 | 0.26 | 0.367 | 0.376 | 0.304
